Measured values published in patent publication US11642341B2, “Combination of brexpiprazole and nalmefene and use thereof for treating substance-related disorders” (OTSUKA PHARMACEUTICAL CO., LTD., priority 2014, dated 2023).
Counter-ions that a name gives are not always drawn.

Tests used:
Wistar rats [1] = assay: Measurement of alcohol intake by limited access paradigm; assay type: in vivo; conditions: data not shown
Description: Measurement method: An impulsive behavior of cravings for drinking alcohol was evaluated as follows by reference to the method of Sinclair et al. (Alcohol 1992; 9:441-44 and Alcohol & Alcoholism 2001; 36:2-10). First, Wistar rats (male) were allowed to freely drink 10% aqueous ethanol solution and tap water for several weeks under isolated rearing. After the ethanol intake of each animal became stable, limited access paradigm allowing ethanol intake only for 1 hr per day was started, and the ethanol intake in 1 hr was measured every day. The ethanol intake was calculated from the results of weight measurement of a water supply bottle filled with 10% aqueous ethanol solution immediately before the start of the limited access paradigm and immediately after the completion of the limited access paradigm. […] The limited access paradigm test was performed during 9:00 AM-4:00 PM. […]
The significance level of the test was set to 5%. […] The difference between an average ethanol intake in the limited access paradigm for 4 days immediately before drug evaluation and an average ethanol intake in the limited access paradigm for 4 days during the drug administration period was calculated for every animal, and analyzed by two-way factorial analysis of variance by using the presence or absence of brexpiprazole and the presence or absence of nalmefene as factors.

rat = assay: Spontaneous locomotor activity under novel environments; assay type: in vivo; conditions: data not shown
Wistar rats [2] = conditions: report Alcohol & Alcoholism 2001; 36: 2-10; present dose 0.04 mg/kg; cited from earlier work
[3] = brexpiprazole alone 0.01 mg/kg orally
[4] = nalmefene hydrochloride monohydrate alone 0.04 mg/kg subcutaneously

Compound: O=c1ccc2ccc(OCCCCN3CCN(c4cccc5sccc45)CC3)cc2[nH]1 [brexpiprazole, 7-[4-(4-benzo[b]thiophen-4-yl-piperazin-1-yl)butoxy]-1H-quinolin-2-one]
- influence on ethanol intake, drug by itself (Wistar rats [1]; [3]): does not, by itself, influence
- influence on spontaneous locomotor activity under novel environments, drug by itself (rat; [3]): does not, by itself, influence

Compound: C=C1CC[C@@]2(O)[C@H]3Cc4ccc(O)c5c4[C@@]2(CCN3CC2CC2)[C@H]1O5 [nalmefene hydrochloride monohydrate]
- influence on ethanol intake, drug by itself (Wistar rats [1]; [4]): does not, by itself, influence
- influence on spontaneous locomotor activity under novel environments, drug by itself (rat; [4]): does not, by itself, influence

Compound: C=C1CC[C@@]2(O)[C@H]3Cc4ccc(O)c5c4[C@@]2(CCN3CC2CC2)[C@H]1O5 [nalmefene, 17-(cyclopropylmethyl)-4,5α-epoxy-6-methylenemorphinan-3,14-diol]
- dose at which nalmefene used singly shows effects in this evaluation system, relative to the dose used in the present test (Wistar rats [2]): about 10 times
